Assay results: ChEMBL document CHEMBL4028843, “Synthesis of both enantiomers of 1,2,3,4-tetrahydroisoquinoline derivative IPPAM-1 and enantio-dependency of its positive allosteric modulation of prostacyclin receptor” (Bioorg Med Chem Lett, 2017)

Target: Prostacyclin receptor (Homo sapiens) (UniProt P43119)
Experiment: Positive allosteric modulation of human prostacyclin receptor expressed in CHOK1 cells assessed as increase in PGI2-induced cAMP production by measuring 2 fold leftward shift in PGI2 concentration response curve measured after 1 hr
Type: functional, cell-based

Prostacyclin receptor (Homo sapiens), sequence (P43119 whole entry): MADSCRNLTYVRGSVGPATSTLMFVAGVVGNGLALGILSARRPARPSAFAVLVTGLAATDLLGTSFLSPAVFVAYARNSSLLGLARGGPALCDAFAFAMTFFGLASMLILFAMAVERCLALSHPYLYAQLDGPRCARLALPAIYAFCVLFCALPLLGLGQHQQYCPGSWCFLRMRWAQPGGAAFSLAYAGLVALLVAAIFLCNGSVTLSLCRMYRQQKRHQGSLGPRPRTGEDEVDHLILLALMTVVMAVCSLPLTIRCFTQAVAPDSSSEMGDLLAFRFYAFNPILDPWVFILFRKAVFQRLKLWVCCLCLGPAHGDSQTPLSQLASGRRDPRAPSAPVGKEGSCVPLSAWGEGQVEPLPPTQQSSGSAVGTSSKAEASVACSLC

Work on CC(C)(C)n1nnnc1[C@@H](c1ccccc1)N1CCc2ccccc2C1 yielded an Activity of 3.1 µM.
